From patent US4510136A (priority 1983, dated 1985)

Tests used:
Format in all cases: in vivo
[1] = system: Puccinia recondita var. tritici; test: Wheat leaf rust control on sprayed wheat seedlings (Example 79); settings: Puccinia recondita, 168 h; for pest or weed control at 100 ppm: 100 ppm spray, day before inoculation
Method: The compounds of this invention were dissolved in acetone in an amount equal to 6% of the final volume and then suspended at a concentration of 100 ppm in purified water containing 250 ppm of the surfactant TREM 014 (polyhydric alcohol esters). These suspensions were sprayed to the point of run-off on wheat seedlings. The following day, the plants were inoculated with a spore suspension of Puccinia recondita var. tritici, causal agent of wheat leaf rust, and incubated in a saturated humidity chamber at 20° for 24 hours and then in a growth room for an additional 7 days, when disease ratings were made. Treated plants from successful treatments had few or no rust pustules while the untreated plants had numerous rust pustules on each leaf.

Erysiphe cichoracearum = test: Cucumber powdery mildew control on sprayed cucumber seedlings (Example 80); settings: Golovinomyces cichoracearum, 168 h, 100 ppm spray, day before inoculation
Method: These suspensions were sprayed to the point of run-off, on cucumber seedlings. The following day, the plants were inoculated with a spore suspension of the fungus Erysiphe cichoracearum, causal agent of cucumber powdery mildew, and incubated in a growth room for 7 days. Disease ratings were then made. Treated plants from successful treatments had little or no powdery mildew in contrast to untreated plants which were covered with powdery mildew. Phytotoxicity in the form of growth reduction or hormonal effects was observed on some of the plants in association with disease control.

Venturia inaequalis = test: Apple scab control on sprayed apple seedlings (Example 82); settings: Venturia inaequalis, 100 ppm spray, day before inoculation
Method: These suspensions were sprayed to the point of run-off on apple seedlings. The following day, the plants were inoculated with a spore suspension of the fungus Venturia inaequalis, causal agent of apple scab, and incubated in a saturated humidity chamber at 20° for 24 hours and then in a growth room for an additional 10-12 days. Treated plants from successful treatments had fewer apple scab lesions when compared to untreated plants which were covered with scab lesions. Phytotoxicity expressed as growth reduction was observed on some of the plants in association with disease control.

Helminthosporium maydis = test: Southern corn leaf blight control on sprayed corn seedlings (Example 83); settings: Bipolaris maydis, 192 h, 100 ppm spray, day before inoculation
Method: The compounds of the previous examples were again dissolved in acetone in an amount equal to 6% of the final volume and then suspended at a concentration of 100 ppm in purified water containing 250 ppm of the surfactant TREM 014 (polyhydric alcohol esters). These suspensions were sprayed to the point of run-off on corn seedlings. The following day, the plants were inoculated with a spore suspension of Helminthosporium maydis, causal agent of southern corn leaf blight, and incubated in a saturated humidity chamber at 20° for 24 hours and then in a growth room for an additional 7 days, when disease ratings were made. Treated plants from successful treatments had few or no lesions while the untreated plants had numerous lesions on each leaf. Phytotoxicity expressed as growth reduction was observed on some of the plants in association with disease control.

Cercospora arachidicola = test: Peanut early leafspot control on sprayed peanut seedlings (Example 84); settings: Mycosphaerella arachidis, 360 h, read-out: % Control Peanut Easly Leafspot; for pest or weed control at 100 ppm: 100 ppm spray, day before inoculation
Method: These suspensions were sprayed to the point of run-off on peanut seedlings. The following day, the plants were inoculated with a spore suspension of Cercospora arachidicola, causal agent of peanut early leafspot, and incubated in a saturated humidity chamber at 27° for 24 hours and then in a growth room for an additional 14 days, when disease ratings were made. Treated plants from successful treatments had few or no leafspots while the untreated plants had numerous leafspots.

Rhizoctonia solani = test: Rice sheath blight control on sprayed rice seedlings (Example 87); settings: Rhizoctonia solani, 168 h, 100 ppm spray, day before inoculation
Method: The compounds of the previous examples were again dissolved in acetone in an amount equal to 6% of the final volume and then suspended at a concentration of 100 ppm in purified water containing 250 ppm of the surfactant TREM 014 (polyhydric alcohol esters). This suspension was sprayed to the point of run-off on rice seedlings. The following day, the plants were inoculated with a mixture of bran and the mycelium of Rhizoctonia solani, causal agent of sheath blight of rice, and incubated in a growth room for 7 days. Disease ratings were then made. Treated plants from successful treatments had little sheath blight in contrast to untreated plants which were covered with sheath blight.

Pyricularia oryzae = test: whole plant or invertebrate; settings: Pyricularia oryzae, 168 h, read-out: % Control of Rice Blast, 100 ppm spray, day before inoculation
Phytophthora infestans = test: whole plant or invertebrate; settings: Phytophthora infestans, in Solanum lycopersicum, 168 h, read-out: % Control of Tomato Late Blight, 100 ppm spray, day before inoculation

C[Si](O)(Cn1cncn1)c1ccc(-c2ccccc2)cc1 (centres unmarked) [(1,1'-Biphenyl-4-yl)hydroxy(methyl)(1H-1,2,4-triazol-1-ylmethyl)silane]
pest or weed control at 100 ppm [1]: 90%
pest or weed control at 100 ppm (Erysiphe cichoracearum): 100%
pest or weed control at 100 ppm (Venturia inaequalis): 100%
pest or weed control at 100 ppm (Helminthosporium maydis): 0%
pest or weed control at 100 ppm (Cercospora arachidicola): 100%
pest or weed control at 100 ppm (Rhizoctonia solani): 0%
pest or weed control at 100 ppm (Pyricularia oryzae): 0%
pest or weed control at 100 ppm (Phytophthora infestans): 0%

CC(C)O[Si](C)(Cn1cncn1)c1ccc(-c2ccccc2)cc1 (centres unmarked) [(1,1'-biphenyl-4-yl)methyl(2-propoxy)(1H-1,2,4-triazol-1-ylmethyl)silane]
pest or weed control at 100 ppm [1]: 100%
pest or weed control at 100 ppm (Erysiphe cichoracearum): 100%
pest or weed control at 100 ppm (Venturia inaequalis): 100%
pest or weed control at 100 ppm (Helminthosporium maydis): 90%
pest or weed control at 100 ppm (Cercospora arachidicola): 100%
pest or weed control at 100 ppm (Rhizoctonia solani): 0%
pest or weed control at 100 ppm (Pyricularia oryzae): 0%
pest or weed control at 100 ppm (Phytophthora infestans): 0%

CC(C)(C)O[Si](C)(Cn1cncn1)c1ccccc1 (centres unmarked) [(1,1-dimethylethoxy)methyl(phenyl)(1H-1,2,4-triazol-1-ylmethyl)silane]
pest or weed control at 100 ppm [1]: 0%
pest or weed control at 100 ppm (Erysiphe cichoracearum): 100%
pest or weed control at 100 ppm (Venturia inaequalis): 0%
pest or weed control at 100 ppm (Helminthosporium maydis): 0%
pest or weed control at 100 ppm (Cercospora arachidicola): 0%
pest or weed control at 100 ppm (Rhizoctonia solani): 0%
pest or weed control at 100 ppm (Pyricularia oryzae): 0%
pest or weed control at 100 ppm (Phytophthora infestans): 0%

C[Si](C)(Cn1cncn1)c1cc(Cl)cc(Cl)c1 [(3,5-Dichlorophenyl)dimethyl(1H-1,2,4-triazol-1-ylmethyl)silane]
pest or weed control at 100 ppm [1]: 80%
pest or weed control at 100 ppm (Erysiphe cichoracearum): 0%
pest or weed control at 100 ppm (Venturia inaequalis): 0%
pest or weed control at 100 ppm (Helminthosporium maydis): 40%
pest or weed control at 100 ppm (Cercospora arachidicola): 0%
pest or weed control at 100 ppm (Rhizoctonia solani): 0%
pest or weed control at 100 ppm (Pyricularia oryzae): 0%
pest or weed control at 100 ppm (Phytophthora infestans): 0%

C[Si](C)(Cn1cncn1)c1cccc(Cl)c1 [(3-Chlorophenyl)dimethyl(1H-1,2,4-triazol-1-ylmethyl)silane]
pest or weed control at 100 ppm [1]: 0%
pest or weed control at 100 ppm (Erysiphe cichoracearum): 0%
pest or weed control at 100 ppm (Venturia inaequalis): 60%
pest or weed control at 100 ppm (Helminthosporium maydis): 0%
pest or weed control at 100 ppm (Cercospora arachidicola): 0%
pest or weed control at 100 ppm (Rhizoctonia solani): 0%
pest or weed control at 100 ppm (Pyricularia oryzae): 0%
pest or weed control at 100 ppm (Phytophthora infestans): 0%

C[Si](C)(Cn1cncn1)c1ccc(-c2ccc(Br)cc2)cc1 [(4'-Bromo-1,1'-biphenyl-4-yl)dimethyl(1H-1,2,4-triazol-1-ylmethyl)silane]
pest or weed control at 100 ppm [1]: 100%
pest or weed control at 100 ppm (Erysiphe cichoracearum): 100%
pest or weed control at 100 ppm (Venturia inaequalis): 100%
pest or weed control at 100 ppm (Helminthosporium maydis): 70%
pest or weed control at 100 ppm (Cercospora arachidicola): 100%
pest or weed control at 100 ppm (Rhizoctonia solani): 90%
pest or weed control at 100 ppm (Pyricularia oryzae): 90%
pest or weed control at 100 ppm (Phytophthora infestans): 30%

CCCC[Si](C)(Cn1cncn1)c1ccccc1 (centres unmarked) [Butyl(methyl)phenyl(1H-1,2,4-triazol-1-ylmethyl)silane]
pest or weed control at 100 ppm [1]: 0%
pest or weed control at 100 ppm (Erysiphe cichoracearum): 100%
pest or weed control at 100 ppm (Venturia inaequalis): 80%
pest or weed control at 100 ppm (Helminthosporium maydis): 0%
pest or weed control at 100 ppm (Cercospora arachidicola): 0%
pest or weed control at 100 ppm (Rhizoctonia solani): 90%
pest or weed control at 100 ppm (Pyricularia oryzae): 90%
pest or weed control at 100 ppm (Phytophthora infestans): 0%

C[Si](C)(Cn1cncn1)c1cccc(C(F)(F)F)c1 [Dimethyl(1H-1,2,4-triazol-1-ylmethyl)(3-trifluoromethylphenyl)silane]
pest or weed control at 100 ppm [1]: 0%
pest or weed control at 100 ppm (Erysiphe cichoracearum): 100%
pest or weed control at 100 ppm (Venturia inaequalis): 0%
pest or weed control at 100 ppm (Helminthosporium maydis): 0%
pest or weed control at 100 ppm (Cercospora arachidicola): 0%
pest or weed control at 100 ppm (Rhizoctonia solani): 0%
pest or weed control at 100 ppm (Pyricularia oryzae): 0%
pest or weed control at 100 ppm (Phytophthora infestans): 0%

C[Si](C)(Cn1cncn1)c1ccc(S(C)(=O)=O)cc1 [Dimethyl(4-methylsulfonylphenyl)(1H-1,2,4-triazol-1-ylmethyl)silane]
pest or weed control at 100 ppm [1]: 0%
pest or weed control at 100 ppm (Erysiphe cichoracearum): 0%
pest or weed control at 100 ppm (Venturia inaequalis): 0%
pest or weed control at 100 ppm (Helminthosporium maydis): 0%
pest or weed control at 100 ppm (Cercospora arachidicola): 0%
pest or weed control at 100 ppm (Rhizoctonia solani): 0%
pest or weed control at 100 ppm (Pyricularia oryzae): 70%
pest or weed control at 100 ppm (Phytophthora infestans): 0%

CSc1ccc([Si](C)(C)Cn2cncn2)cc1 [Dimethyl(4-methylthiophenyl)(1H-1,2,4-triazol-1-ylmethyl)silane]
pest or weed control at 100 ppm [1]: 0%
pest or weed control at 100 ppm (Erysiphe cichoracearum): 100%
pest or weed control at 100 ppm (Venturia inaequalis): 60%
pest or weed control at 100 ppm (Helminthosporium maydis): 80%
pest or weed control at 100 ppm (Cercospora arachidicola): 0%
pest or weed control at 100 ppm (Rhizoctonia solani): 0%
pest or weed control at 100 ppm (Pyricularia oryzae): 0%
pest or weed control at 100 ppm (Phytophthora infestans): 0%

CCCCCCCCCCCCCCCCCC[Si](C)(C)Cn1cncn1 [Dimethyl(octadecyl)(1H-1,2,4-triazol-1-ylmethyl)silane]
pest or weed control at 100 ppm [1]: 0%
pest or weed control at 100 ppm (Erysiphe cichoracearum): 0%
pest or weed control at 100 ppm (Venturia inaequalis): 60%
pest or weed control at 100 ppm (Helminthosporium maydis): 0%
pest or weed control at 100 ppm (Cercospora arachidicola): 0%
pest or weed control at 100 ppm (Rhizoctonia solani): 0%
pest or weed control at 100 ppm (Pyricularia oryzae): 0%
pest or weed control at 100 ppm (Phytophthora infestans): 0%

CC(C)O[Si](C)(Cn1cncn1)c1ccccc1 (centres unmarked) [Methyl(phenyl)(2-propoxy)(1H-1,2,4-triazol-1-ylmethyl)silane]
pest or weed control at 100 ppm [1]: 0%
pest or weed control at 100 ppm (Erysiphe cichoracearum): 100%
pest or weed control at 100 ppm (Venturia inaequalis): 0%
pest or weed control at 100 ppm (Helminthosporium maydis): 0%
pest or weed control at 100 ppm (Cercospora arachidicola): 0%
pest or weed control at 100 ppm (Rhizoctonia solani): 0%
pest or weed control at 100 ppm (Pyricularia oryzae): 0%
pest or weed control at 100 ppm (Phytophthora infestans): 0%

Cc1ccc([Si](C)(Cn2cncn2)c2ccc(C)cc2)cc1 [Methyl[bis(4-methylphenyl)](1H-1,2,4-triazol-1-ylmethyl)silane]
pest or weed control at 100 ppm [1]: 0%
pest or weed control at 100 ppm (Erysiphe cichoracearum): 0%
pest or weed control at 100 ppm (Venturia inaequalis): 0%
pest or weed control at 100 ppm (Helminthosporium maydis): 0%
pest or weed control at 100 ppm (Cercospora arachidicola): 0%
pest or weed control at 100 ppm (Rhizoctonia solani): 30%
pest or weed control at 100 ppm (Pyricularia oryzae): 80%
pest or weed control at 100 ppm (Phytophthora infestans): 0%

Fc1ccc([Si](Cn2cncn2)(O[Si](Cn2cncn2)(c2ccc(F)cc2)c2ccc(F)cc2)c2ccc(F)cc2)cc1 [Oxybis[bis(4-fluorophenyl)(1H-1,2,4-triazol-1-ylmethyl)silane]]
pest or weed control at 100 ppm [1]: 100%
pest or weed control at 100 ppm (Erysiphe cichoracearum): 100%
pest or weed control at 100 ppm (Venturia inaequalis): 100%
pest or weed control at 100 ppm (Helminthosporium maydis): 97%
pest or weed control at 20 ppm (Cercospora arachidicola; applied at 20 ppm): 93%
pest or weed control at 100 ppm (Rhizoctonia solani): 0%
pest or weed control at 100 ppm (Pyricularia oryzae): 50%
pest or weed control at 100 ppm (Phytophthora infestans): 0%

CC(C)(C)c1ccc([Si](C)(C)Cn2cncn2)cc1 [[4-(1,1-Dimethylethyl)phenyl]dimethyl(1H-1,2,4-triazol-1-ylmethyl)silane]
pest or weed control at 200 ppm ([1]; applied at 200 ppm): 80%
pest or weed control at 100 ppm (Erysiphe cichoracearum): 0%
pest or weed control at 100 ppm (Venturia inaequalis): 0%
pest or weed control at 100 ppm (Helminthosporium maydis): 60%
pest or weed control at 100 ppm (Cercospora arachidicola): 35%
pest or weed control at 100 ppm (Rhizoctonia solani): 90%
pest or weed control at 100 ppm (Pyricularia oryzae): 90%
pest or weed control at 100 ppm (Phytophthora infestans): 0%

C[Si](Cn1cncn1)(c1ccccc1Cl)c1ccccc1Cl [[bis(2-Chlorophenyl)]methyl(1H-1,2,4-triazol-1-ylmethyl)silane]
pest or weed control at 100 ppm [1]: 100%
pest or weed control at 100 ppm (Erysiphe cichoracearum): 100%
pest or weed control at 100 ppm (Venturia inaequalis): 40%
pest or weed control at 100 ppm (Helminthosporium maydis): 60%
pest or weed control at 100 ppm (Cercospora arachidicola): 100%
pest or weed control at 100 ppm (Rhizoctonia solani): 60%
pest or weed control at 100 ppm (Pyricularia oryzae): 90%
pest or weed control at 100 ppm (Phytophthora infestans): 0%
